Test results as given in patent US20100249418A1, “NOVEL COMPOUND HAVING AFFINITY FOR AMYLOID” (NIHON MEDI-PHYSICS CO., LTD., priority 2007, published 2010).
Where two headings read alike, the source gives them in different places.

Legend:
[1] = [125I]-labeled, normal mice, cited from earlier work; for Transfer into brain: 2 minutes after administration
[2] = Measurement of partition coefficient based on the octanol extraction method (log Poctanol); type: physicochemical; settings: octanol / 10 mmol/L phosphate buffer (pH 7.4)
Protocol: Partition coefficients based on the octanol extraction method (hereinafter referred to as log Poctanol) were measured, which are generally known as an indicator of permeability of compounds through the blood-brain barrier (hereinafter referred to as BBB).
Each diethyl ether solution of Compound 1, Compound 2, Compound 3 and Compound 4 as well as a diethyl ether solution of [^123I]-IMPY were each diluted with 10 mg/mL ascorbic acid-containing physiological saline solution, and adjusted to a radioactive concentration of 27-30 MBq/mL. To 2 mL of octanol, 10 μL each of these solutions was added, and 2 mL of 10 mmol/L phosphate buffer (pH 7.4) was added, followed by stirring for 30 seconds. After each mixture was centrifuged (2000 rpm×60 min.) with a low-speed centrifuge (type: CTD4, manufactured by Hitachi Koki Co., Ltd), the octanol layer and the water layer were sampled each in an amount of 1 mL, and subjected to measurement of radioactivity count with an autowell gamma system (Type: ARC-301B, manufactured by Aloka). Using the obtained radioactivity count, log Poctanol was calculated in accordance with the equation (1).

[3] = Measurement of transferability into brain and clearance (radioactive accumulation in brain after intravenous injection); type: in vivo, male Wistar rats; settings: rats; for Radioactive accumulation per unit weight, After 2 min. / Radioactive accumulation per unit weight, After 5 min. / Radioactive accumulation per unit weight, After 30 min. / Radioactive accumulation per unit weight, After 60 min.: brain; for Radioactive accumulation per unit weight, After 2 min.: 2 min after injection; for Radioactive accumulation per unit weight, After 5 min.: 5 min after injection; for Radioactive accumulation per unit weight, After 30 min.: 30 min after injection; for Radioactive accumulation per unit weight, After 60 min.: 60 min after injection; for Transferability to brain and clearance from brain (in words): 2 to 60 min
Protocol: Using Compound 1, Compound 2, Compound 3 and Compound 4, a time course change of radioactive accumulation in brain of male Wistar rats (7-week old) was measured.
Compound 1 in 10 mg/mL ascorbic acid-containing physiological saline solution (27 MBq/mL in radioactive concentration), Compound 2 in 10 mg/mL ascorbic acid-containing physiological saline solution (27 MBq/mL in radioactive concentration), Compound 3 in 10 mg/mL ascorbic acid-containing physiological saline solution (28 MBq/mL in radioactive concentration) and Compound 4 in 10 mg/mL ascorbic acid-containing physiological saline solution (30 MBq/mL in radioactive concentration) were prepared to obtain sample solutions. The sample solutions were injected under thiopental anesthesia into the tail vein of the male Wistar rats (7-week old) (dosage: 0.05 mL, dosed radioactivity: 1.4-1.5 MBq equivalent). The rats were sacrificed by bleeding from abdominal artery, and brains were removed and subjected to measurement of mass of brains and further subjected to measurement of radioactivity (hereinafter referred to as A in this Example) with a single channel analyzer (detector type: SP-20 manufactured by OHYO KOKEN KOGYO Co., Ltd.) 2, 5, 30 and 60 minutes after the injection. Further, the radioactivity level of the rest of the whole body was measured in the same manner as above (hereinafter referred to as B in this Example). Using these measurement results, radioactive accumulation per unit weight of brain (% ID/g) at the respective time points of dissection was calculated in accordance with the following formula (2) (Examples 19 to 22).
Separately, [^123I]-IMPY in 10 mg/mL ascorbic acid-containing physiological saline solution (16 MBq/mL in radioactive concentration) was prepared, the same procedure as above was conducted, and radioactive accumulation per unit weight of brain (% ID/g) at the respective time points of dissection was calculated (Comparative Example 1).
Meanwhile, three animals were used for all Examples and Comparative Example 2 at the respective time points.

[4] = test system: Salmonella typhimurium TA98 and TA100; test: Reverse mutation test (Ames test), overall statement for both strains; type: cell-based
Protocol: (§1) In order to examine gene mutagenicity of Compound 5, reverse mutation test using Salmonella typhimurium TA98 and TA100 (hereinafter referred to as Ames test) was conducted.
(§2) The test was conducted without addition of S9mix and with addition of S9mix. Dimethylsulfoxide (hereinafter referred to as DMSO) was used as a negative control. A positive control was 2-(2-furyl)-3-(5-nitro-2-furyl)acrylamide (hereinafter referred to as AF-2) in case S9mix was not added, and 2-aminoanthracene (hereinafter referred to as 2-AA) in case S9mix was added.
(§3) As a sample solution to be added to a test plate, a solution at maximum concentration in which Compound 5 was dissolved in DMSO (concentration of compound: 50 mg/mL) and a sample solution to be added to a test plate at each concentration in which a solution at maximum concentration was diluted with DMSO were prepared. […]

[5] = test system: Salmonella typhimurium TA98; test: Reverse mutation test (Ames test), TA98; type: cell-based
Protocol: as §1, §2, §3

[6] = test system: Salmonella typhimurium TA100; test: Reverse mutation test (Ames test), TA100; type: cell-based
Protocol: as §1, §2, §3

[7] = reported in WO03/106439; cited from earlier work
amyloid = settings: [125I]-labeled compounds, cited from earlier work
[8] = [11C]-labeled, rats; cited from earlier work

Molecule: CN(C)c1ccc(-c2nc3ccc(I)cc3s2)cc1 [TZDM, 6-iodo-2-[4′-(N,N-dimethylamino)phenyl]benzothiazole]
- Transfer into brain [1]: transferred into brain
- Clearance from normal tissues [1]: insufficient in clearance from normal tissues

Molecule: 3-cyano-2-[4′-(2″-hydroxyethoxy)phenyl]-6-[^123I]iodoimidazo[1,2-a]pyridine [Compound 4]
- logPoctanol value [2]: 3.0
- Radioactive accumulation per unit weight, After 2 min. [3]: 0.82 % ID/g
- Radioactive accumulation per unit weight, After 5 min. [3]: 0.67 % ID/g
- Radioactive accumulation per unit weight, After 30 min. [3]: 0.18 % ID/g
- Radioactive accumulation per unit weight, After 60 min. [3]: 0.04 % ID/g
- Transferability to brain and clearance from brain (in words) [3]: excellent transferability to brain and rapid clearance from brain

Molecule: 2-[4′-(2″-hydroxyethoxy)phenyl]-6-[^123I]iodo-3-methylimidazo[1,2-a]pyridine [Compound 2]
- logPoctanol value [2]: 2.2
- Radioactive accumulation per unit weight, After 2 min. [3]: 0.57 % ID/g
- Radioactive accumulation per unit weight, After 5 min. [3]: 0.36 % ID/g
- Radioactive accumulation per unit weight, After 30 min. [3]: 0.05 % ID/g
- Radioactive accumulation per unit weight, After 60 min. [3]: 0.01 % ID/g
- Transferability to brain and clearance from brain (in words) [3]: excellent transferability to brain and rapid clearance from brain
- Number of reverse mutation colonies relative to the group treated with the negative control ([4]; regardless of addition of S9mix and the addition amount of sample, negative control DMSO): less than two times

Molecule: CN(C)c1ccc(-c2nc3ccc(I)cc3o2)cc1 [IBOX, 6-iodo-2-[4′-(N,N-dimethylamino)phenyl]benzoxazole]
- Transfer into brain [1]: transferred into brain
- Clearance from normal tissues [1]: insufficient in clearance from normal tissues

Molecule: Cc1c(-c2ccc(OCCO)cc2)nc2ccc(I)cn12 [Compound 5, 2-[4′-(2″-hydroxyethoxy)phenyl]-6-iodo-3-methylimidazo[1,2-a]pyridine]
- Mutagenicity, TA98, with addition of S9mix ([5]; with addition of S9mix): Negative
- Mutagenicity, TA98, without addition of S9mix ([5]; without addition of S9mix): Negative
- Mutagenicity, TA100, with addition of S9mix ([6]; with addition of S9mix): Negative
- Mutagenicity, TA100, without addition of S9mix ([6]; without addition of S9mix): Negative
- Ames test judgement (mutagenicity) ([4]; TA98 and TA100, with and without S9mix): negative in the Ames test and has no mutagenicity

Molecule: Cc1c(-c2ccc(F)cc2)nc2ccc([123I])cn12 [Compound 1, 2-(4′-fluorophenyl)-6-[^123I]iodo-3-methylimidazo[1,2-a]pyridine]
- logPoctanol value [2]: 2.3
- Radioactive accumulation per unit weight, After 2 min. [3]: 0.91 % ID/g
- Radioactive accumulation per unit weight, After 5 min. [3]: 0.60 % ID/g
- Radioactive accumulation per unit weight, After 30 min. [3]: 0.08 % ID/g
- Radioactive accumulation per unit weight, After 60 min. [3]: 0.03 % ID/g
- Transferability to brain and clearance from brain (in words) [3]: excellent transferability to brain and rapid clearance from brain

Molecule: CN(C)c1ccc(-c2cn3cc([123I])ccc3n2)cc1 [[^123I]-IMPY, reference compound]
- logPoctanol value [2]: 1.9
- Radioactive accumulation per unit weight, After 2 min. [3]: 1.19 % ID/g
- Radioactive accumulation per unit weight, After 5 min. [3]: 0.97 % ID/g
- Radioactive accumulation per unit weight, After 30 min. [3]: 0.23 % ID/g
- Radioactive accumulation per unit weight, After 60 min. [3]: 0.09 % ID/g
- Transferability to brain and clearance from brain (in words) [3]: excellent transferability to brain and rapid clearance from brain

Molecule: 2-(4′-hydroxyphenyl)-6-[^123I]iodo-3-methylimidazo[1,2-a]pyridine [Compound 3]
- logPoctanol value [2]: 2.5
- Radioactive accumulation per unit weight, After 2 min. [3]: 0.50 % ID/g
- Radioactive accumulation per unit weight, After 5 min. [3]: 0.34 % ID/g
- Radioactive accumulation per unit weight, After 30 min. [3]: 0.05 % ID/g
- Radioactive accumulation per unit weight, After 60 min. [3]: 0.01 % ID/g
- Transferability to brain and clearance from brain (in words) [3]: excellent transferability to brain and rapid clearance from brain

Molecule: CC(=C(C#N)C#N)c1ccc2cc(N(C)CCF)ccc2c1 [FDDNP, 2-(1-{6-[(2-fluoroethyl)(methyl)amino]-2-naphthyl}ethylidene)malononitrile]
- Reverse mutation test result [7]: positive

Molecule: CN(C)c1ccc(/C=C/c2ccc(I)cc2)cc1 [m-I-SB, (E)-4-dimethylamino-4′-iodostilbene]
- Transfer into brain [1]: transferred into brain
- Clearance from normal tissues [1]: insufficient in clearance from normal tissues

Molecule: CN(C)c1ccc(-c2cn3cc(I)ccc3n2)cc1 [IMPY, 6-iodo-2-[4′-(N,N-dimethylamino)phenyl]imidazo[1,2-a]pyridine]
- Reverse mutation test result [7]: positive
- Transfer to brain and accumulation at amyloid (amyloid; after administration): transferring to brain and accumulating at amyloid after administration
- Clearance from normal tissues (amyloid): rapid clearance from normal tissues

Molecule: CNc1ccc(/C=C/c2ccc(O)cc2)cc1 [SB-13, (E)-4-methylamino-4′-hydroxystilbene]
- Clearance from normal tissues [8]: it cannot be said that the clearance is sufficiently fast
